Legend:
[1] = test system: Cyp1A2; assay: Liver RNA Q-PCR, polyI:C/APAP-treated mice: Cyp1A2; details: polyI:C 100 μg i.v.; FIG. 1B
[2] = test system: Hes1; assay: BMM Q-PCR: Hes1 mRNA; assay type: cell-based, Murine; details: FIG. 9b
[3] = test system: RXRα; assay type: cell-based, Murine
[4] = test system: RXRα; assay: RAW264.7 cells with siHes1, Q-PCR: RXRα mRNA; assay type: cell-based, murine; details: siRNA specific to Hes1, polyI:C 1 μg/ml 8 hours; FIG. 9d
[5] = test system: CYP24; parameters: species or system mice; details: mouse, in vivo
[6] = test system: Cyp3A11; assay: Liver RNA Q-PCR, polyI:C/APAP-treated mice: Cyp3A11; details: polyI:C 100 μg i.v.; FIG. 1C
[7] = test system: PXR/RXR ER6 binding region of CYP3A4; assay: ChIP with anti-RXRα antibody at CYP3A4; assay type: cell-based, human; details: combinatorial treatment with rifampicin 25 μM and polyI:C, 24 hours; FIG. 10g and h
Description: FIG. 10: PolyI:C transcriptional repression of RXRα is critical for repression of nuclear receptor target genes. a, Wildtype, IRF3^−/− and IFNAR^−/− BMMs were stimulated with Control (DMSO), or LG268 (10 nM) with or without polyI:C (1 μg/ml). RNA was analyzed by Q-PCR. b, pCMV-RAW 264.7 cells (MT) or pCMV-Hes1-RAW 264.7 cells (Hes1) were stimulated with Control (DMSO) and 9cRA with or without polyI:C (1 μg/ml) for 24 hrs. RNA was analyzed by Q-PCR. c, RAW264.7 cells transfected with siNS or siHes1 duplex oligos were stimulated with Control (DMSO) and 9cRA (10 μM) with or without polyI:C (1 μg/ml) for 24 hours. RNA was analyzed by Q-PCR. d, pBabe-RAW 264.7 cells (Raw_MT) and pBabe-RXRα-RAW264.7 cells (Raw-RXRα) were stimulated with Control (DMSO) or LG268 (10 nM) with or without polyI:C (1 μg/ml) for 24 hrs. RNA was analyzed by Q-PCR. e, pBabe-Huh7 cells (Huh7 MT) and pBabe-RXRα-Huh7 cells (Huh7-RXRα) were stimulated with Control (DMSO) and rifampicin (25 μM) with or without polyI:C (2 μg/ml, transfected). RNA was analyzed by Q-PCR. f, pBabe-Huh7 cells (Huh7 MT) and pBabe-RXRα-Huh7 cells (Huh7_RXRα) were stimulated with Control (DMSO) and ASA (20 μg/ml) with or without polyI:C (2 μg/ml, transfected). RNA was analyzed by Q-PCR. g,h, BMMs were stimulated with rifampicin (25 μM) and polyI:C (1 μg/ml) for 24 hours. […] PCR products on gel are quantified by ImageJ, normalized to Input. […]

[8] = Dolphin et al. 1987; cited from earlier work
[9] = test system: CRBPII; assay: BMM Q-PCR: CRBPII; assay type: cell-based, Murine; details: LG268 10 nM with polyI:C 1 μg/ml; IRF3^−/− and IFNAR^−/− BMMs; FIG. 10a

Substance: polyinosinic:polycytidylic acid [polyI:C]
- basal Cyp1A2 mRNA level in liver [1]: potently repressed
- Hes1 mRNA ([2]; LPS 10 ng/ml or polyI:C 1 μg/ml 4 hrs): potently induced
- Hes1 induction in IRF3^−/− and IFNAR^−/− BMMs ([2]; polyI:C 1 μg/ml 4 hrs): involves IRF3, but not Type I IFNs
- polyI:C-mediated inhibition of RXRα mRNA in knockout BMMs [3]: defective in IRF3^−/− BMMs but not IFNAR^−/− BMMs
- RXRα mRNA repression, extended time course ([3]; 1, 4 or 8 hrs, FIG. 8b): more potent repressor of RXRα mRNA than LPS
- RXRα mRNA in BMMs ([3]; LPS 10 ng/ml or polyI:C 1 μg/ml, 4 hours, FIG. 8a): repressed RXRα mRNA
- RXRα primary transcripts ([3]; polyI:C 4 or 8 hrs, exon-intron primers, FIG. 9a): strongly repressed
- RXRα mRNA stability ([3]; polyI:C 2 hours then Actinomycin D, FIG. 9a): No significant differences
- polyI:C-mediated repression of RXRα with Hes1 knockdown [4]: requirement of Hes1 in polyI:C-mediated repression of RXRα
- effect on induction of CYP24 mRNA by 1,25(OH)2D3 [5]: blunted
- basal Cyp3A11 mRNA level in liver [6]: potently repressed
- RXRα present on CYP3A4 promoter (ChIP) [7]: maximal loss of RXRα in the PXR/RXR ER6 binding region of CYP3A4
- ASA metabolism after polyI:C treatment [8]: results in defective ASA metabolism
- LG268 induction of CRBPII [9]: repressed by polyI:C in IFNAR^−/− BMMs but not IRF3^−/− BMMs

Reference: patent US20090181910A1, “METHOD OF PREVENTION AND ALLEVIATION OF TOXICITY BY MODULATION OF IRF3” (priority 2006, published 2009)
